Experimental data published in patent publication US20230286958A1, “PLASMA KALLIKREIN INHIBITORS” (Merck Sharp & Dohme LLC, priority 2020, published 2023).

Legend:
Human plasma kallikrein = Human plasma kallikrein (Homo sapiens (Human), UniProt P03952); test: Kallikrein Assay (fluorogenic substrate Acetyl-K-P-R-AFC); assay type: biochemical; settings: Plasma Kallikrein (PKal)
Outline: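 Ki is derived from IC50 with the Cheng-Prusoff equation, and IC50 from the inflection point of a four-parameter logistic curve. The rate of AFC release is read with 0.5 nM purified enzyme and […] substrate at room temperature or 37 °C.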

human Factor XIa = human Factor XIa (Homo sapiens (Human), UniProt P03951); test: Factor XIa Assay (fluorogenic substrate GPR-AFC); assay type: biochemical; settings: Factor XIa (FXIa)
Sequence of human Factor XIa (P03951 388-625 limits assumed): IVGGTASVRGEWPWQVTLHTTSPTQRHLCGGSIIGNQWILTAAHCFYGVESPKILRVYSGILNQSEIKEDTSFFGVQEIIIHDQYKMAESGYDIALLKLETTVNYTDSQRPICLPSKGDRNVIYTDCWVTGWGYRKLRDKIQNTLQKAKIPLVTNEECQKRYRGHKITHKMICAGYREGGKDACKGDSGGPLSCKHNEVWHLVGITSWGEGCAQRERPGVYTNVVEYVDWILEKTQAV
Sequence of human Factor XIa (P03951 19-387 partner limits assumed): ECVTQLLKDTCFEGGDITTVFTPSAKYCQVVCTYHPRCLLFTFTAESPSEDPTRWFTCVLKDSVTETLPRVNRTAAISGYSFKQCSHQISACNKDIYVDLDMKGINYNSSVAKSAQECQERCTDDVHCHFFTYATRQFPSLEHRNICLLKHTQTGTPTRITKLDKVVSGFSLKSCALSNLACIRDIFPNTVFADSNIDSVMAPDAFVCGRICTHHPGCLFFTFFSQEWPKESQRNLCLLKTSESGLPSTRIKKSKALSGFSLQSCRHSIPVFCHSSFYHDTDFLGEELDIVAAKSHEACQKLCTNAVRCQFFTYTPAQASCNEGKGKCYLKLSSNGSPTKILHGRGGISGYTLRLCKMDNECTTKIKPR

Sequence of Human plasma kallikrein (P03952 391-638): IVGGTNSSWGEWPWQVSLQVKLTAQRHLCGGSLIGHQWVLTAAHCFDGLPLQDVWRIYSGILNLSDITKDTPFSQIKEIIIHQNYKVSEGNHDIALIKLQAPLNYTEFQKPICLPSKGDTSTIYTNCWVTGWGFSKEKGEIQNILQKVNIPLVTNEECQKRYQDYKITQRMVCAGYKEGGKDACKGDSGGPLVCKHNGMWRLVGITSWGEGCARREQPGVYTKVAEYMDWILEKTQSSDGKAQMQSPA
Sequence of Human plasma kallikrein (P03952 20-390 partner): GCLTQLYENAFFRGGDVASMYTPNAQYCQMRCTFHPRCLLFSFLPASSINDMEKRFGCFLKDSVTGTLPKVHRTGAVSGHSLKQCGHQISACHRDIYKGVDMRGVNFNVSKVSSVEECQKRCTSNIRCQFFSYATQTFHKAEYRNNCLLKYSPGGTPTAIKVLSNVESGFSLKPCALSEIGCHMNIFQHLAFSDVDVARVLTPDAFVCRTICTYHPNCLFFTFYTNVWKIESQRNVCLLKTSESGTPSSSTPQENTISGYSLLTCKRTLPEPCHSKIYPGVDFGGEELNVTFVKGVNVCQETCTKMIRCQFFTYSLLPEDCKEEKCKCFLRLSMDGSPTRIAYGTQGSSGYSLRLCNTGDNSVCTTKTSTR

| Structure (SMILES) | IC50 (Human plasma kallikrein) | IC50 (human Factor XIa) |
| --- | --- | --- |
| Cc1cc(N2C[C@H]3C[C@H]3C2=O)cnc1C(C)n1cc(NC(=O)c2cncc(-c3c(C(F)F)ccc(Cl)c3F)n2)cn1 (single isomer, unassigned) [Example 62, 6-(3-Chloro-6-(difluoromethyl)-2-fluorophenyl)-N-(1-((S or R)-1-(3-methyl-5-((1R,5S)-2-oxo-3-azabicyclo[3.1.0]hexan-3-yl)pyridin-2-yl)ethyl)-1H-pyrazol-4-yl)pyrazine-2-carboxamide] | 4.2 nM | 7630 nM |
| Cc1cc(C(C)n2cc(NC(=O)c3nc(-c4c(C(F)F)ccc(Cl)c4F)cnc3C(C)O)cn2)nnc1N1C[C@H]2C[C@H]2C1=O (single isomer, unassigned) [Example 229, 6-(3-Chloro-6-(difluoromethyl)-2-fluorophenyl)-3-((R or S)-1-hydroxyethyl)-N-(1-((S or R)-1-(5-methyl-6-((1R,5S)-2-oxo-3-azabicyclo[3.1.0]hexan-3-yl)pyridazin-3-yl)ethyl)-1H-pyrazol-4-yl)pyrazine-2-carboxamide] | 0.37 nM | 178 nM |
| Cc1nc(C(C)n2cc(NC(=O)c3cncc(-c4c(C(F)F)ccc(Cl)c4F)n3)cn2)cnc1N1C[C@H]2C[C@H]2C1=O (single isomer, unassigned) [Example 13, 6-(3-Chloro-6-(difluoromethyl)-2-fluorophenyl)-N-(1-((R or S)-1-(6-methyl-5-((1R,5S)-2-oxo-3-azabicyclo[3.1.0]hexan-3-yl)pyrazin-2-yl)ethyl)-1H-pyrazol-4-yl)pyrazine-2-carboxamide] | 0.5 nM | 2820 nM |
| Cc1nc(C(C)n2cc(NC(=O)c3nc(-c4c(C(F)F)ccc(Cl)c4F)cnc3CO)cn2)cnc1N1C[C@H]2C[C@H]2C1=O (single isomer, unassigned) [Example 198, 6-(3-Chloro-6-(difluoromethyl)-2-fluorophenyl)-3-(hydroxymethyl-N-(1-((R or S)-I-(6-methyl-5-((1R,5S)-2-oxo-3-azabicyclo[3.1.0]hexan-3-yl)pyrazin-2-yl)ethyl)-1H-pyrazol-4-yl)pyrazine-2-carboxamide] | 0.1 nM | 110 nM |
| Cc1nc(C2(n3cc(NC(=O)c4nc(-c5c(C(F)F)ccc(Cl)c5F)cnc4CO)cn3)CC2)cnc1N1C[C@H]2C[C@H]2C1=O [Example 223, 6-(3-Chloro-6-(difluoromethyl)-2-fluorophenyl)-3-(hydroxymethyl)-N-(1-(1-(6-methyl-5-((1R,5S)-2-oxo-3-azabicyclo[3.1.0]hexan-3-yl)pyrazin-2-yl)cyclopropyl)-1H-pyrazol-4-yl)pyrazine-2-carboxamide] | 1 nM | 1840 nM |

Second part, the molecule after the results:

| IC50 (Human plasma kallikrein) | IC50 (human Factor XIa) | Structure (SMILES) |
| --- | --- | --- |
| 0.8 nM | > 10000 nM | Cc1ncc(-c2c(C(F)F)ccc(Cl)c2F)nc1C(=O)Nc1cnn(C(C)c2ncc(N3C[C@H]4C[C@H]4C3=O)c(C)c2C)c1 (single isomer, unassigned) [Example 242, 6-(3-Chloro-6-(difluoromethyl)-2-fluorophenyl)-N-(1-((R or S)-1-(3,4-dimethyl-5-((1R,5S)-2-oxo-3-azabicyclo[3.1.0]hexan-3-yl)pyridin-2-yl)ethyl)-1H-pyrazol-4-yl)-3-methylpyrazine-2-carboxamide] |
| 0.7 nM | 1820 nM | [2H]C1([2H])C2CC2C(=O)N1c1ncc([C@H](C)n2cc(NC(=O)c3nc(-c4c(C(F)F)ccc(Cl)c4F)cnc3C)cn2)c(C)n1 (single isomer, unassigned) [Example 179, 6-(3-Chloro-6-(difluoromethyl)-2-fluorophenyl)-3-methyl-N-(1-((S)-1-(4-methyl-2-((1S,5R or 1R,5S)-2-oxo-3-azabicyclo[3.1.0]hexan-3-yl-4,4-d2)pyrimidin-5-yl)ethyl)-1H-pyrazol-4-yl)pyrazine-2-carboxamide] |
